The values that follow come from ChEMBL document CHEMBL5465560, “Selectivity Literature for EUbOPEN Chemogenomic Library” (2024).

Each structure is given as a SMILES string.

The target in assay [1] is Vascular endothelial growth factor receptor 3 (Homo sapiens, UniProt P35916). The assay is described as follows: Selectivity interaction (KinomeScan (DiscoverX)) EUB0001619a FLT4. As to conditions: at 1 µM.
The target of assay [2] is Mitotic checkpoint serine/threonine-protein kinase BUB1 (Homo sapiens, UniProt O43683). The assay is described as follows: Selectivity interaction (KinomeScan (DiscoverX)) EUB0000666a BUB1. Particulars: at 10 µM.
In assay [3] the target is T1, SNF-related serine/threonine-protein kinase (Homo sapiens) (UniProt Q9NRH2).
T1 sequence (whole entry): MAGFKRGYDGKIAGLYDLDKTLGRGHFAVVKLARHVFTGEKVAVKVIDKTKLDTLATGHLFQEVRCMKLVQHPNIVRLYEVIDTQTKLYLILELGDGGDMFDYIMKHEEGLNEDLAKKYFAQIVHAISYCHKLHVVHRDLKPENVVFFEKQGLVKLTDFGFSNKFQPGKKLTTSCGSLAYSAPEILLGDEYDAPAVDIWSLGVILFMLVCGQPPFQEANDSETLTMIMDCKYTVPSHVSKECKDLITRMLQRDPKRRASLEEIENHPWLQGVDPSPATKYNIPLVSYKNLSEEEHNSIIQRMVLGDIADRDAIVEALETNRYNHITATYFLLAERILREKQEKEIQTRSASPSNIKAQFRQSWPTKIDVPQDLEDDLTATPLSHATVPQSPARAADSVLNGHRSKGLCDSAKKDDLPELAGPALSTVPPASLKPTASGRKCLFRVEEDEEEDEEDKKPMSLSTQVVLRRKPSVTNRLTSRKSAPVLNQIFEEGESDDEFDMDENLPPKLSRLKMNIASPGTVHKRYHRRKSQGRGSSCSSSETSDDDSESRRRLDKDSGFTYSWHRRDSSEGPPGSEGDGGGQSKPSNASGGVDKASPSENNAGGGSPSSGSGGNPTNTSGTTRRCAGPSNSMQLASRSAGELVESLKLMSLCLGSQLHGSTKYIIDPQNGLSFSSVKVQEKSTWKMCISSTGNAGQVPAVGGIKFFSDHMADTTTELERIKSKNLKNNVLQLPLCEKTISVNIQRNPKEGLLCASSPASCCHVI
As to conditions: at 10 µM.

In assay [4] the target is T2, Dual specificity mitogen-activated protein kinase kinase 3 (Homo sapiens) (UniProt P46734).
T2 sequence (whole entry): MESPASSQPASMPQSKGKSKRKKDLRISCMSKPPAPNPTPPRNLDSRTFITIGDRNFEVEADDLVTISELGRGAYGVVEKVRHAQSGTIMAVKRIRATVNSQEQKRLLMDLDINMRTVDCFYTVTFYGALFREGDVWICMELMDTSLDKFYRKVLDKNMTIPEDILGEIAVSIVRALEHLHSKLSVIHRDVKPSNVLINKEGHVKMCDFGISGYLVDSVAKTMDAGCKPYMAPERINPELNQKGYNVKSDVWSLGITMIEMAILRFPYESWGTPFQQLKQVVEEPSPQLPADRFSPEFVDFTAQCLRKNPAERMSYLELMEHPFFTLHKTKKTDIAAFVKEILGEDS
In words: Selectivity interaction (ActivX KiNativ screen (kinase selectivity in THP-1 cell lysates)) EUB0000639a MAP2K3. The format is subcellular. Particulars: lysate, at 0.04 µM.

The target of assay [5] is T3, MAP kinase-activated protein kinase 5 (Homo sapiens) (UniProt Q8IW41).
T3 sequence (whole entry): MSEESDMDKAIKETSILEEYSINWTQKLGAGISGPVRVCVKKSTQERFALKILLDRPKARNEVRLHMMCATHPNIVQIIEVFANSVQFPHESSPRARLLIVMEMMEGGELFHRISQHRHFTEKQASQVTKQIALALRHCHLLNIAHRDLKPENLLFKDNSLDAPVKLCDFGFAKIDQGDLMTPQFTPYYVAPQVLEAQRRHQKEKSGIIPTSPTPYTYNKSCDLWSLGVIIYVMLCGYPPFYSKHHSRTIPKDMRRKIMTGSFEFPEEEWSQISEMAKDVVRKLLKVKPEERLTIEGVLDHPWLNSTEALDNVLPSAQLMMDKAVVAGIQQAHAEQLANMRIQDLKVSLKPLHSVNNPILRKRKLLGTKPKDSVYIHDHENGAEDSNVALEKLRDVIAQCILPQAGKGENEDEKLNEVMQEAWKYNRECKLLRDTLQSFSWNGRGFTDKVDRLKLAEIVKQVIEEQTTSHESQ
The assay is described as follows: Selectivity interaction (ProQinase) EUB0000171b MAPKAPK5.

Assay [6] deals with T4, Tyrosine-protein kinase Tec (Homo sapiens) (UniProt P42680).
T4 sequence (whole entry): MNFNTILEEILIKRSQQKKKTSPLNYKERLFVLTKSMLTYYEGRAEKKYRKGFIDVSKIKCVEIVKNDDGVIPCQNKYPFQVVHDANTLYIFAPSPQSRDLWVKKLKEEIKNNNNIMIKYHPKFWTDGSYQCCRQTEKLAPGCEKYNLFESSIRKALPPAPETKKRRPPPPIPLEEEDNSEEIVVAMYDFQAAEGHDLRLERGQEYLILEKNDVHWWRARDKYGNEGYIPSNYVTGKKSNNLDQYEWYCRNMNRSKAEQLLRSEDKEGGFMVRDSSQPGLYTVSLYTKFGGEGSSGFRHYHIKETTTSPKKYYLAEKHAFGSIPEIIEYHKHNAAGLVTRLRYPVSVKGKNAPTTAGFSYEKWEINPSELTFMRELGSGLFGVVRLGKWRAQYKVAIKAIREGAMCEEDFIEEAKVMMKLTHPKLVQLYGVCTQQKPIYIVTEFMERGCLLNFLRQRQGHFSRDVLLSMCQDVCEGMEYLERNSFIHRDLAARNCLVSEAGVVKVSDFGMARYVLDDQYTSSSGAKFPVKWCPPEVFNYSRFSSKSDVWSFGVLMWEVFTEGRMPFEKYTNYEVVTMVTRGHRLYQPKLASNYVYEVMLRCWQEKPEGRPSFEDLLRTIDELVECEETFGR
The assay is described as follows: Selectivity interaction (Ambit KINOMEscan and KiNATiv profiling in Jurkat cells) EUB0000090b TEC. The format is cell-based. As to conditions: at 1 µM.

Assay [7] addresses Mitogen-activated protein kinase 8 (Homo sapiens, UniProt P45983). The assay is described as follows: Selectivity interaction (KinomeScan (DiscoverX)) EUB0000229b MAPK8. Particulars: at 10 µM.

Vascular endothelial growth factor receptor 3, sequence (P35916 whole entry): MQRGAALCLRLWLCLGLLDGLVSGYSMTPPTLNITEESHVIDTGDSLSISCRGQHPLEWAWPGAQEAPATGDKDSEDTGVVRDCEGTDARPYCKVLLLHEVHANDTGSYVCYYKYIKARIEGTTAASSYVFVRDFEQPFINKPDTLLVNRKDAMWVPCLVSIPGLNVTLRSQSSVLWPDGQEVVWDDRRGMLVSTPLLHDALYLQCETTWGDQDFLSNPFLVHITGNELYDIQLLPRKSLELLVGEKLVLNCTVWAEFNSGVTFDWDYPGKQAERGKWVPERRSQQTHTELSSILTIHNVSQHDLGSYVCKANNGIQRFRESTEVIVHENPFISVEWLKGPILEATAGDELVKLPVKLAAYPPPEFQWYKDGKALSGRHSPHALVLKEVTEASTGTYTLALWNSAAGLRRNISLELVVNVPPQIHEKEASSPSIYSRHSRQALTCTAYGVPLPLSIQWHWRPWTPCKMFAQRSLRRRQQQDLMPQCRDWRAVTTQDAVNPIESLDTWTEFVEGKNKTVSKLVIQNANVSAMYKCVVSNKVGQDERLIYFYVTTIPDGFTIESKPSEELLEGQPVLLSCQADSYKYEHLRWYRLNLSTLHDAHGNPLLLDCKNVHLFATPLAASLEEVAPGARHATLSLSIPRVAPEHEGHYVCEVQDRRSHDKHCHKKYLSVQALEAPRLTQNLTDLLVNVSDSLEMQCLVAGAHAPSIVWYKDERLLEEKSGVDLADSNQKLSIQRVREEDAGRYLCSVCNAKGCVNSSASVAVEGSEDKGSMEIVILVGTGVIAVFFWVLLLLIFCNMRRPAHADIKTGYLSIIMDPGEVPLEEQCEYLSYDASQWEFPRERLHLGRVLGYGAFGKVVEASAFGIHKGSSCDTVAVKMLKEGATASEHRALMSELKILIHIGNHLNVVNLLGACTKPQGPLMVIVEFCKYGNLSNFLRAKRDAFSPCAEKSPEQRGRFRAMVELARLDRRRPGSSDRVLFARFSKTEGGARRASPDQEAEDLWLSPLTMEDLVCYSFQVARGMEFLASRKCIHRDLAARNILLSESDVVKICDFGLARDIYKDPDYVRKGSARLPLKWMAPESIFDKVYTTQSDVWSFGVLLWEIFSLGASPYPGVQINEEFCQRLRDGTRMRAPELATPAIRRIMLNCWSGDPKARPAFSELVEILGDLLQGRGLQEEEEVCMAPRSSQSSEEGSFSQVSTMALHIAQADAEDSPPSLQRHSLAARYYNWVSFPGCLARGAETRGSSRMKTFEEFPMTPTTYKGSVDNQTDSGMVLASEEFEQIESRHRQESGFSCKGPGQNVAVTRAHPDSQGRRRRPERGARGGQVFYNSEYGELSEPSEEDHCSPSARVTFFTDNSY
Mitogen-activated protein kinase 8, sequence (P45983 whole entry): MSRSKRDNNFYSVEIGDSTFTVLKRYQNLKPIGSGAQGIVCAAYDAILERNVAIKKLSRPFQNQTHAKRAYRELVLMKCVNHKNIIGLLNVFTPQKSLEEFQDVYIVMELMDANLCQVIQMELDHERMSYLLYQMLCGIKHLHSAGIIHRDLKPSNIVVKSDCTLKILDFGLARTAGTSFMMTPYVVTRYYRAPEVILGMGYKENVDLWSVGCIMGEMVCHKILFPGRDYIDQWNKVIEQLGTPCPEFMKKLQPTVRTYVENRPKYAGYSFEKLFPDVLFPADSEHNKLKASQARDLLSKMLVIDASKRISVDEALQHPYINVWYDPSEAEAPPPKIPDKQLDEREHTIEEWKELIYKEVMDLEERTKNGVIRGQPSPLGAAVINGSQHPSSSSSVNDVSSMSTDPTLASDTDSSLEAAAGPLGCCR
Mitotic checkpoint serine/threonine-protein kinase BUB1, sequence (O43683 whole entry, looked up): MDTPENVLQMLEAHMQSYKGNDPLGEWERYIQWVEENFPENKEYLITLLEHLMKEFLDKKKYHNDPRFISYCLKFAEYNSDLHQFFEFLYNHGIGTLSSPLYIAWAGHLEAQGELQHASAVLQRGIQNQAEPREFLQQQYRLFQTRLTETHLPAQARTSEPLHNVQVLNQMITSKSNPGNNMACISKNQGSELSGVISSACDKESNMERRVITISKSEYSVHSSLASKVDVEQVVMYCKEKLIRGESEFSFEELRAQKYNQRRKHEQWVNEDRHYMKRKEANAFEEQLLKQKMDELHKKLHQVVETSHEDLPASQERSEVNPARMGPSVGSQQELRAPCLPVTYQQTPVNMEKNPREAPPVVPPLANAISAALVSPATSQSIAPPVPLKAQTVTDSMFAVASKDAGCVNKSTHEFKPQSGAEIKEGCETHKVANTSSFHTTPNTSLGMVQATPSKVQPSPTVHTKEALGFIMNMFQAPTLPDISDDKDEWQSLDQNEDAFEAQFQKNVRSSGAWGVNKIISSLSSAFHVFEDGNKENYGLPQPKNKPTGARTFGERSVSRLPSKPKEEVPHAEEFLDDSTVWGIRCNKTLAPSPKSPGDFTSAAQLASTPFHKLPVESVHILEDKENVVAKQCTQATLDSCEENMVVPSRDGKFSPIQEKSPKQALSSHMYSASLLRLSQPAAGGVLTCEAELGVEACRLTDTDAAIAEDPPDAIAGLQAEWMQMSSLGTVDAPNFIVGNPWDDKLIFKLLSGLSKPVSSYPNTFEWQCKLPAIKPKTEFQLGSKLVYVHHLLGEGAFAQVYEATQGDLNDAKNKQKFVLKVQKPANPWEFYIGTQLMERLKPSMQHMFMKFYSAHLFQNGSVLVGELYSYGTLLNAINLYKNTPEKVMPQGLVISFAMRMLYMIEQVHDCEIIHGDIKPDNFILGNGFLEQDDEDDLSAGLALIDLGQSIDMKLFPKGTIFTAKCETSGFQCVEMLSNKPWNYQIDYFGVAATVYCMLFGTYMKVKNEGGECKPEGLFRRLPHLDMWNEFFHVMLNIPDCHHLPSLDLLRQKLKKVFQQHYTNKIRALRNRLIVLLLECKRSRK

Compound `N#Cc1cccc(-c2c[nH]c3ncnc(N4CCOCC4)c23)c1` came in with a % of control in assay [1] of 100%. On to `O=C(NOC[C@H](O)CO)c1ccc(F)c(F)c1Nc1ccc(I)cc1F`, for which the % of control in assay [2] is 100%. `Cc1cc([C@@H](C)Nc2ccccc2C(=O)O)c2nc(N3CCOCC3)cc(=O)n2c1` [AZD-6482] had a % of control in assay [3] of 89%. In the case of `CC[C@@H]1[C@H](F)C(=O)N[C@@H]1COc1nccc2cc(C(N)=O)c(OC)cc12` [ZIMLOVISERTIB], the % of inhibition in assay [4] is -19%. For `C=CC(=O)Nc1cccc(C(=O)Nc2ccc(Nc3cc(-c4[nH]c(SC)nc4C)ccn3)cc2)c1`, the values for the % of control in assay [5] (at 1 µM) and in assay [5] (at 5 µM) were 96% and 97%, respectively. Turning to `CN(C)C/C=C/C(=O)Nc1ccc(C(=O)N2CCCC(Nc3ncc(Cl)c(-c4c[nH]c5ccccc45)n3)C2)cc1` (stereo not drawn), in assay [6], the % of control was 99%. With `COc1cc(N(C)c2ccnc3ccc(C(F)(F)F)cc23)cc(OC)c1OC`, the % binding in assay [7] came to 72%.
